Each structure is given as a SMILES string.

Among the data in patent US20240294522A1 (Lead Discovery Center GmbH, priority 2021, published 2024) are IC50 values, retold here.

Experiment [1] addresses T1, GRK5 (Homo sapiens, UniProt P34947).
T1 construct: purchased Thermo Scientific
The experiment is described as follows: Lance Kinase Activity Assay, GRK5. The settings on record: biochemical Lance kinase activity assay; class symbols A-F; read-out: GRK5 LANCE Assay (IC-50). How it is done: (§1) This protocol describes how the Lance Kinase Activity Assay was performed to determine IC50 values of compounds of general formula (I) against GRK5 and GRK2.
(§2) The principle behind this enzymatic assay is based upon the phosphorylation of the Ulight-peptide substrate. It is detected by using a specific EU-labeled anti-phospho peptide antibody. The binding of the Eu labeled anti-phospho peptide antibody to the phosphorylated ULight labeled peptide gives rise to a FRET-signal. Binding of an inhibitor to the kinase prevents phosphorylation of the Ulight-substrate, resulting in a loss of FRET. In tables 2 and 3 the relevant information for these two LANCE assays is summarized.
(§3) For every sample, 2 μl of assay buffer (50 mM HEPES pH 7,5, 10 mM MgCL2, 1 mM EGTA 0,01% Tween 20, 1% DMSO, 2 mM DTT) were transferred into a suitable assay plate (e.g. Corning #3673). Compounds were added in a concentration range from 10 μM to 0.0025 μM using an acoustic dispenser (Echo520 from Labcycte, San Jose, USA) equipped with Echo Dose Response software. After that 6 μl of kinase-substrate mix was added. Reaction was started by addition of 2 μl ATP working solution and mixed using a Bioshake 5000 microplate shaker (Q Instruments, Jena, Germany).
(§4) After 1 h incubation at room temperature the reaction was stopped with 10 μl detection mix containing the Eu-labeled phosphospecific antibody and 10 mM EDTA. After a second incubation period of 1 h at room temperature the FRET signal was measured at 340 nm excitation, 665 nm and 615 nm emission (for the ULight-substrate and Eu-AB, respectively) with an Envision microplate reader (Perkin Elmer, Waltham, MA, USA) with 50 μs delay and 300 μs integration time. IC50 values were determined from the sigmoidal dose response curves with the software Quattro Workflow (Quattro GmbH, Munich, Germany).
(§5) Inhibition is indicated as IC50 [nM] (“−”=not measured). Compounds having an activity designated as “A” provided an IC50≤50 nM; compounds having an activity designated as “B” provided an 50 nM<IC50≤100 nM; compounds having an activity designated as “C” provided an 100 nM<IC50≤500 nM; compounds having an activity designated as “D” provided an 500 nM<IC50≤1000 nM; compounds having an activity designated as “E” provided an 1000 nM<IC50≤10000 nM; and compounds having an activity designated as “F” provided an IC50>10000 nM.

Experiment [2] addresses T2, GRK2 (Homo sapiens, UniProt P25098).
T2 construct: purchased Thermo Scientific
T2 sequence (P25098 1-689): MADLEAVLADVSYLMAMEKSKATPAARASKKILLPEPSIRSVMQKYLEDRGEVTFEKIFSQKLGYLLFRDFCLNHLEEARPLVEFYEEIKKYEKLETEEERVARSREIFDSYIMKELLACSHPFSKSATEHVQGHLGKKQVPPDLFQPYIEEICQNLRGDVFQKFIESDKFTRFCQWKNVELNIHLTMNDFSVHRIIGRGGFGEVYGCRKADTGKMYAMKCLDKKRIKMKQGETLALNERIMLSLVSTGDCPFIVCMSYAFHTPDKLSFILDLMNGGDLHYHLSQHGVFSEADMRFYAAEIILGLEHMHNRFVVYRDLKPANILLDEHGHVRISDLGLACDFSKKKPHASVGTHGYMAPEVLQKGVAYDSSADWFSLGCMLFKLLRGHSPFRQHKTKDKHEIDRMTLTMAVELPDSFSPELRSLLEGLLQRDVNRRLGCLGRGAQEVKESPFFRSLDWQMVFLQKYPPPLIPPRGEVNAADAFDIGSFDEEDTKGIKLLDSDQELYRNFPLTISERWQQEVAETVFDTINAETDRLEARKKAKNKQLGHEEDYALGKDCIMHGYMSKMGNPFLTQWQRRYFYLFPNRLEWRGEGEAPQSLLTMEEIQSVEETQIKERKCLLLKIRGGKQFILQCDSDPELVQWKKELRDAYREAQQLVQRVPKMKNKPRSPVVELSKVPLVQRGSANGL
The experiment is described as follows: Lance Kinase Activity Assay, GRK2. The note with it: biochemical Lance kinase activity assay; class symbols A-F; read-out: GRK2 LANCE Assay (IC-50). How it is done:
as §1, §2, §3, §4, §5
A general note: Time-resolved FRET reads energy transfer from a long-lived donor to a nearby acceptor.

T1 sequence (P34947 whole entry): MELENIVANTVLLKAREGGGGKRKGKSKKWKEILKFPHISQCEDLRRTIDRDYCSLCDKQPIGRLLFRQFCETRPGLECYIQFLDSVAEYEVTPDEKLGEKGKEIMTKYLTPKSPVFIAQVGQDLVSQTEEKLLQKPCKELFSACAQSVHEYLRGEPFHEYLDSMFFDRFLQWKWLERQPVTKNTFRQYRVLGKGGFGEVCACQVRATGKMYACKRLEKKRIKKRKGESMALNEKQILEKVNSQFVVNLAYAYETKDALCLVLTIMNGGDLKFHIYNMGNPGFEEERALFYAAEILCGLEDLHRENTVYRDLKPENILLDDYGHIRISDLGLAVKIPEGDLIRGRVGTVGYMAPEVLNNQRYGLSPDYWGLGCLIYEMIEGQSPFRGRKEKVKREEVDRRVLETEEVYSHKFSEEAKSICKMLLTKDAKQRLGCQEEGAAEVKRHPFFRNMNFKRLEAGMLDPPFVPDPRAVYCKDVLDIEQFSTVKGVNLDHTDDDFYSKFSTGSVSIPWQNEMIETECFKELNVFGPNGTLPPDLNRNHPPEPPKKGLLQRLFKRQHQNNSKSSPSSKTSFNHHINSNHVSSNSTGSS

Turning to `COc1ccc([C@@H](C)NC(=O)/C(C#N)=C/c2c[nH]c3ncc(C(=O)N4CCN(C)CC4)cc23)cc1OC` [Example 83, (R,E)-2-cyano-N-(1-(3,4-dimethoxyphenyl)ethyl)-3-(5-(4-methylpiperazine-1-carbonyl)-1H-pyrrolo[2,3-b]pyridin-3-yl)acrylamide], the IC50 in experiment [1] is 100 to 500 nM; in experiment [2] it was > 10000 nM.
The like results for `COc1ccc([C@@H](C)NC(=O)/C(C#N)=C/c2c[nH]c3ncc(-c4cnn(C)c4)cc23)cc1OC` [Example 164] were, in that order, ≤ 50 nM and 1000 to 10000 nM.
Take `C[C@@H](NC(=O)/C(C#N)=C/c1c[nH]c2nccc(Cl)c12)c1ccc(F)cc1` [Example 78, (R,E)-3-(4-chloro-1H-pyrrolo[2,3-b]pyridin-3-yl)-2-cyano-N-(1-(4-fluorophenyl)ethyl)acrylamide]: the IC50 in experiment [1] was 100 to 500 nM; in experiment [2], 500 to 1000 nM.
On to `COc1ccc([C@@H](C)NC(=O)/C(C#N)=C/c2c[nH]c3ncc(C4=CCCCC4)cc23)cc1OC` [Example 156, (R,E)-2-cyano-3-(5-(cyclohex-1-en-1-yl)-1H-pyrrolo[2,3-b]pyridin-3-yl)-N-(1-(3,4-dimethoxyphenyl)ethyl)acrylamide], for which the IC50 was 100 to 500 nM in experiment [1] and > 10000 nM in experiment [2].
`COc1ccc([C@@H](C)NC(=O)/C=C/c2c[nH]c3nccc(-c4cccc(CN(C)C)c4)c23)cc1OC` [Example 224, (R,E)-N-(1-(3,4-dimethoxyphenyl)ethyl)-3-(4-(3-((dimethylamino)methyl)phenyl)-1H-pyrrolo[2,3-b]pyridin-3-yl)acrylamide]: the results for the IC50 in experiment [1] and in experiment [2] were 100 to 500 nM and > 10000 nM, respectively.
For `COc1ccc([C@@H](C)NC(=O)/C(C#N)=C/c2c[nH]c3nccc(-c4ccccc4)c23)cc1OC` [Example 175], the IC50 is ≤ 50 nM in experiment [1] and 1000 to 10000 nM in experiment [2].
`N#C/C(=C\c1c[nH]c2ncccc12)C(=O)NCc1cccc2[nH]ncc12` [Example 45, (E)-N-((1H-indazol-4-yl)methyl)-2-cyano-3-(1H-pyrrolo[2,3-b]pyridin-3-yl)acrylamide]: the IC50 in experiment [1] was in the range of 500 to 1000 nM; in experiment [2], 1000 to 10000 nM.
Consider `COc1ccc([C@@H](C)NC(=O)/C(C#N)=C/c2c[nH]c3ncc(-c4ccc5nc(C)cn5c4)cc23)cc1OC` [Example 162], for which the IC50 was ≤ 50 nM in experiment [1] and 1000 to 10000 nM in experiment [2].
The corresponding values for `COc1ccc([C@@H](C)NC(=O)/C(C#N)=C/c2c[nH]c3ncc(C)cc23)cc1OC` [Example 87, (R,E)-2-cyano-N-(1-(3,4-dimethoxyphenyl)ethyl)-3-(5-methyl-1H-pyrrolo[2,3-b]pyridin-3-yl)acrylamide] are ≤ 50 nM and 500 to 1000 nM.
As for `COc1ccc([C@@H](C)NC(=O)/C=C/c2c[nH]c3nccc(-c4ccc(C(N)=O)cc4)c23)cc1OC` [Example 236, (R,E)-4-(3-(3-((1-(3,4-dimethoxyphenyl)ethyl)amino)-3-oxoprop-1-en-1-yl)-1H-pyrrolo[2,3-b]pyridin-4-yl)benzamide], the results for the IC50 in experiment [1] and in experiment [2] were 100 to 500 nM and > 10000 nM, respectively.
For the compound `COc1ccc([C@@H](C)NC(=O)/C(C#N)=C/c2c[nH]c3ncc(-c4cnn(Cc5ccccc5)c4)cc23)cc1OC` [Example 159], the IC50 in experiment [1] was 100 to 500 nM; in experiment [2], > 10000 nM.
For the compound `O=C(/C=C/c1c[nH]c2ncc(Cl)cc12)NCc1cccc(F)c1` [Example 7, (E)-3-(5-chloro-1H-pyrrolo[2,3-b]pyridin-3-yl)-N-(3-fluorobenzyl)acrylamide], the IC50 fell in the range of 100 to 500 nM in experiment [1] and 1000 to 10000 nM in experiment [2].
On to `COc1ccc([C@@H](C)NC(=O)/C(C#N)=C/c2c[nH]c3ncc(-c4cnn(C5COC5)c4)cc23)cc1OC` [Example 155], for which the values for the IC50 in experiment [1] and in experiment [2] were ≤ 50 nM and 1000 to 10000 nM, respectively.
For the compound `N#C/C(=C\c1c[nH]c2ncccc12)C(=O)NCc1ccccc1Cl` [Example 62, (E)-N-(2-chlorobenzyl)-2-cyano-3-(1H-pyrrolo[2,3-b]pyridin-3-yl)acrylamide], the results for the IC50 in experiment [1] and in experiment [2] were 100 to 500 nM and 1000 to 10000 nM, respectively.
`CNS(=O)(=O)c1ccccc1CNC(=O)/C(C#N)=C/c1c[nH]c2ncccc12` [Example 43, (E)-2-cyano-N-(2-(N-methylsulfamoyl)benzyl)-3-(1H-pyrrolo[2,3-b]pyridin-3-yl)acrylamide]: the IC50 in experiment [1] lay within 100 to 500 nM; in experiment [2] it was 1000 to 10000 nM.
As to `N#C/C(=C\c1c[nH]c2ncc(Cl)cc12)C(=O)NCc1ccccc1` [Example 73, (E)-N-benzyl-3-(5-chloro-1H-pyrrolo[2,3-b]pyridin-3-yl)-2-cyanoacrylamide], the IC50 in experiment [1] and in experiment [2] was 1000 to 10000 nM throughout.
Regarding `COc1ccc([C@@H](C)NC(=O)/C(C#N)=C/c2c[nH]c3ncc(OCc4nccn4C)cc23)cc1OC` [Example 106, (R,E)-2-cyano-N-(1-(3,4-dimethoxyphenyl)ethyl)-3-(5-((1-methyl-1H-imidazol-2-yl)methoxy)-1H-pyrrolo[2,3-b]pyridin-3-yl)acrylamide], the results for the IC50 in experiment [1] and in experiment [2] were ≤ 50 nM and 1000 to 10000 nM, respectively.
As for `CN(C)c1ccccc1CNC(=O)/C(C#N)=C/c1c[nH]c2ncccc12` [Example 25, (E)-2-cyano-N-(2-(dimethylamino)benzyl)-3-(1H-pyrrolo[2,3-b]pyridin-3-yl)acrylamide], the IC50 is 1000 to 10000 nM in experiment [1] and > 10000 nM in experiment [2].
In the case of `COc1ccc(C(CCN(C)C)NC(=O)/C(C#N)=C/c2c[nH]c3ncccc23)cc1` (stereo not shown) [Example 51, (E)-2-cyano-N-(3-(dimethylamino)-1-(4-methoxyphenyl)propyl)-3-(1H-pyrrolo[2,3-b]pyridin-3-yl)acrylamide], the IC50 was ≤ 50 nM in experiment [1] and 500 to 1000 nM in experiment [2].
`N#C/C(=C\c1c[nH]c2ncc(Cl)cc12)C(=O)NCc1cc(F)cc(F)c1` [Example 75, (E)-3-(5-chloro-1H-pyrrolo[2,3-b]pyridin-3-yl)-2-cyano-N-(3,5-difluorobenzyl)acrylamide]: the IC50 in experiment [1] was 1000 to 10000 nM; in experiment [2], > 10000 nM.
Consider `COc1ccc([C@@H](C)NC(=O)/C=C/c2c[nH]c3nccc(-c4ccc(OCCCN(C)C)cc4)c23)cc1OC` [Example 241, (R,E)-N-(1-(3,4-dimethoxyphenyl)ethyl)-3-(4-(4-(3-(dimethylamino)propoxy)phenyl)-1H-pyrrolo[2,3-b]pyridin-3-yl)acrylamide], for which the IC50 in experiment [1] fell in the range of 50 to 100 nM; in experiment [2] it was 1000 to 10000 nM.
Turning to `CC[C@H](C)Oc1cnc2[nH]cc(/C=C(\C#N)C(=O)N[C@H](C)c3ccc(OC)c(OC)c3)c2c1` [Example 109, (E)-3-(5-((S)-sec-butoxy)-1H-pyrrolo[2,3-b]pyridin-3-yl)-2-cyano-N-((R)-1-(3,4-dimethoxyphenyl)ethyl)acrylamide], the IC50 in experiment [1] is ≤ 50 nM; in experiment [2], > 10000 nM.
Regarding `N#C/C(=C\c1c[nH]c2ncccc12)C(=O)NC(c1cccc(Br)c1)C(F)(F)F` (stereo not shown) [Example 47, (E)-N-(1-(3-bromophenyl)-2,2,2-trifluoroethyl)-2-cyano-3-(1H-pyrrolo[2,3-b]pyridin-3-yl)acrylamide], the IC50 in experiment [1] is 1000 to 10000 nM; in experiment [2], > 10000 nM.
